From patent US20100227853A1, “INHIBITORS OF CYCLIC AMP PHOSPHODIESTERASES” (Trustees of Boston College, priority 2008, published 2010)
Each block holds one compound with its values, some of them ahead of it.

How the values were obtained:
[1] = molecular target: T1, PDE4A1 (Mus musculus, UniProt O89084); assay: cAMP response in yeast strain expressing PDE4A1; type: cell-based, Murine
T1 construct: targets used in the assays are full-length proteins (as opposed to simply the catalytic domain); expressed in transfected cells; host or cells: Schizosaccharomyces pombe, PDE gene integrated in place of cgs2
T1 sequence (O89084 1-610 isoform O89084-2): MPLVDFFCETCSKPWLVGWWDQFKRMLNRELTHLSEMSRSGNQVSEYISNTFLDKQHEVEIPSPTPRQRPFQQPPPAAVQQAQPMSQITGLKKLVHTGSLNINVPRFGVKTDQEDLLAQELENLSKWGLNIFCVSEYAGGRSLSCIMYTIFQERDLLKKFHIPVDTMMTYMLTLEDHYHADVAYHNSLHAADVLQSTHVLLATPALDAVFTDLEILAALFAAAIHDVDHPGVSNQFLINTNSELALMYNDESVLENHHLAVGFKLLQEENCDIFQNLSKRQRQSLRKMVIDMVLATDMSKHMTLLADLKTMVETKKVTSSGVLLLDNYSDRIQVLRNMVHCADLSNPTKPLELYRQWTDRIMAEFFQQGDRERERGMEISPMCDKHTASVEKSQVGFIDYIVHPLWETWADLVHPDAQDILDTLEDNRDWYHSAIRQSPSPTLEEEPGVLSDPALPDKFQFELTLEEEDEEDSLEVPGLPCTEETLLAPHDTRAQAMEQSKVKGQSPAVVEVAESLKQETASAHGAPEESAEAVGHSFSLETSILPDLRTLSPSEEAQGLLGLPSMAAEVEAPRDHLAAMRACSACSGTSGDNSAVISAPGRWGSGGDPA
Excerpt: Values represent the average and SD of two or three independent experiments. […] The strains used are as in FIG. 5A, together with strain CHP1141 (PDE8A). Values represent the average and SD of two or three independent experiments.
Thus, PDE inhibition can be indirectly quantitated by measuring the effect of a compound on cAMP levels in target yeast strains.

[2] = molecular target: PDE7A (Homo sapiens, UniProt Q13946); assay: in vitro enzyme assay PDE7A; type: biochemical; design: made in house; host or cells: E. coli; conditions: 2 micromolar compound; read-out: percent of PDE activity present, PDE7A
[3] = molecular target: T1, PDE4A1; assay: 5FOA growth assay (high throughput screen, ED50) in fission yeast strain expressing PDE4A1; type: cell-based; conditions: high throughput 5FOA growth screen; greater than 8.53 = statistically-significant inhibitor
Summary of the method: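 Fission yeast strains carrying mouse PDE4A1 or PDE4B3 and an fbp1-ura4 reporter were pregrown in EMM with 0.5–2.5 mM cAMP, then seeded at 0.5–4×10^5 cells/ml in 5FOA medium with compound. Growth was read as OD600 after 48 h at 30° C; composite Z scores were derived.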

[4] = molecular target: PDE4A (Homo sapiens, UniProt P27815); assay: in vitro enzyme assay PDE4A (Table 7); type: biochemical; conditions: 2 micromolar compound; read-out: percent of PDE activity present, PDE4A
[5] = molecular target: PDE4B (Homo sapiens, UniProt Q07343); assay: in vitro enzyme assay PDE4B (Table 7); type: biochemical; conditions: 2 micromolar compound; read-out: percent of PDE activity present, PDE4B
[6] = molecular target: PDE4D (Homo sapiens, UniProt Q08499); assay: in vitro enzyme assay PDE4D (Table 7); type: biochemical; conditions: 2 micromolar compound; read-out: percent of PDE activity present, PDE4D
[7] = molecular target: T2, PDE4D2-CAT (Homo sapiens, UniProt Q08499); assay: in vitro enzyme assay, catalytic fragment of PDE4D2 (residues 86-413); type: biochemical
T2 construct: 86-413; made in house; host or cells: E. coli

[8] = tested on: PDE2A, PDE4A, PDE4B, Cgs2; assay: Parallel high throughput 5FOA growth screens of bioactive libraries; type: cell-based, murine PDEs; yeast Cgs2; conditions: 3,120 bioactive compounds, average 20 μM
Procedure: High throughput drug screens were carried out at the Broad Institute's Chemical Biology Program screening facility (Broad Institute, Cambridge, Mass.). Depending upon the strain, cultures were pregrown to exponential phase in EMM complete medium containing from 0.5 to 2.5 mM cAMP to repress fbp1-ura4 transcription. […] Starting cell concentrations ranged from 0.5×10^5 to 4×10^5 cells/ml depending on the screening strain. […] Other positive control dishes contained 5 mM cAMP in the 5FOA medium. Cultures were grown for 48 hours at 30° C., sealed in an airtight container with moist paper towels to prevent evaporation. Optical densities (OD600) of cultures were measured using a microplate reader. Bioinformatic analysis of the results to determine composite Z scores was performed as previously described^30, 31.

[9] = tested on: PDE4A, PDE4B, PDE4D, PDE7A, PDE7B, PDE8A, PDE3A; assay: Summary of PDE inhibitor profile; design: key: (1): Strong PDE7A inhibitor, weak to moderate PDE4A, 4B inhibitor; (2): Strong PDE7A and PDE4s (including PDE4D) inhibitor; (3): Strong PDE7A inhibitor; conditions: overall classification, Table 18 footnotes
[10] = molecular target: T3, PDE8A (Mus musculus, UniProt O88502); assay: fbp1-lacZ β-galactosidase reporter assay, PDE8A strain; type: cell-based, murine
T3 construct: targets used in the assays are full-length proteins (as opposed to simply the catalytic domain); expressed in transfected cells; host or cells: Schizosaccharomyces pombe, PDE gene integrated in place of cgs2 (strains CHP1141, DDP13)
T3 sequence (O88502 1-823): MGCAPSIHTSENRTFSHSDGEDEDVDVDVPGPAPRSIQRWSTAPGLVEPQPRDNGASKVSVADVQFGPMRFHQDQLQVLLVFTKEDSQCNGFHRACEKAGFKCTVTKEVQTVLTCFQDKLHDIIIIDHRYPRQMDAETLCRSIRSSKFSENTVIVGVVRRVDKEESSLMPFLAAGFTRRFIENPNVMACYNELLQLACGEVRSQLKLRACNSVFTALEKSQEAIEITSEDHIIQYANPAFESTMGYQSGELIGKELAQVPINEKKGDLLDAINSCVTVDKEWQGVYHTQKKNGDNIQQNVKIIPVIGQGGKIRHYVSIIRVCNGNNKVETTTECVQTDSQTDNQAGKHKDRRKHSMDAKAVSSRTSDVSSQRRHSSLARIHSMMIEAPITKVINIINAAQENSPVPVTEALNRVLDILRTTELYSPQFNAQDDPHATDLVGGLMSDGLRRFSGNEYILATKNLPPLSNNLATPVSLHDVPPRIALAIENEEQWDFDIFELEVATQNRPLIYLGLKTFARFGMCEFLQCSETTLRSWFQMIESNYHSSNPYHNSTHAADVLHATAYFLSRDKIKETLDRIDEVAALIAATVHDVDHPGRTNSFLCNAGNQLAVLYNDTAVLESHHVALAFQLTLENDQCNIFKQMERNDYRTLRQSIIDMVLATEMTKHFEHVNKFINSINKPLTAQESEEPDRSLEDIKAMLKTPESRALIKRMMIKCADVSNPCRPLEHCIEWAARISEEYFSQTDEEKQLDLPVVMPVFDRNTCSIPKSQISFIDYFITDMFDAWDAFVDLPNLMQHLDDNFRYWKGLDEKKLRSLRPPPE
Procedure: β-galactosidase assays and characterization of 5FOA-sensitivity were carried out as previously described^10. cAMP assays were performed on exponential phase cells grown in EMM complete medium (3% glucose), using the Assay Designs cAMP EIA kit, according to manufacturer's instructions (Assay Designs, Ann arbor, Mich.).
The effect of known PDE inhibitors on the expression of the fbp1-lacZ fusion in murine PDE-expressing strains was tested. […] For Table 4 β-galactosidase activity was determined from 3 to 4 independent exponential phase cultures. The average±SD represents specific activity per milligram of soluble protein.

PDE4D, sequence (Q08499 whole entry, the tested form may be a part): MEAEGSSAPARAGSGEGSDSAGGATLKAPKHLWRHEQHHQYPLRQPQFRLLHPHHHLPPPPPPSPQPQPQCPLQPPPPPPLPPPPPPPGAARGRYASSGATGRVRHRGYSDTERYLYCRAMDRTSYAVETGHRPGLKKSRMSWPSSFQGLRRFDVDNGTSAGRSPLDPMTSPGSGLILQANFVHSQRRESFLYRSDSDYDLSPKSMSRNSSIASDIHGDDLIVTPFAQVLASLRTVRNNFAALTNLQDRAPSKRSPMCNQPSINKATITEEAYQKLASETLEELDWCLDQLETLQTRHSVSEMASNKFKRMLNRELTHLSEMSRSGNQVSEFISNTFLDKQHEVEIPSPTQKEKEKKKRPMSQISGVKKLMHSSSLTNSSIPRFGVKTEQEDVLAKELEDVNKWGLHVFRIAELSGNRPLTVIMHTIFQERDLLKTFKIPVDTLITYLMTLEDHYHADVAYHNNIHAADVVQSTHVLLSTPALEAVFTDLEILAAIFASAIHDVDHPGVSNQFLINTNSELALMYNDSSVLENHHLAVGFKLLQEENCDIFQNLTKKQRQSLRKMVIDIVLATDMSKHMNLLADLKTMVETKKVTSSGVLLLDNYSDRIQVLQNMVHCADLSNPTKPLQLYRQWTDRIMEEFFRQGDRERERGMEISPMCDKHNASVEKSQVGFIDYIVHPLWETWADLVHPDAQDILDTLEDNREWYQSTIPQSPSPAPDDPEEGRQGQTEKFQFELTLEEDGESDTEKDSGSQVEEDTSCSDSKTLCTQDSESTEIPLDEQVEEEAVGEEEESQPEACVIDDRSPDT
PDE7A, sequence (Q13946 whole entry): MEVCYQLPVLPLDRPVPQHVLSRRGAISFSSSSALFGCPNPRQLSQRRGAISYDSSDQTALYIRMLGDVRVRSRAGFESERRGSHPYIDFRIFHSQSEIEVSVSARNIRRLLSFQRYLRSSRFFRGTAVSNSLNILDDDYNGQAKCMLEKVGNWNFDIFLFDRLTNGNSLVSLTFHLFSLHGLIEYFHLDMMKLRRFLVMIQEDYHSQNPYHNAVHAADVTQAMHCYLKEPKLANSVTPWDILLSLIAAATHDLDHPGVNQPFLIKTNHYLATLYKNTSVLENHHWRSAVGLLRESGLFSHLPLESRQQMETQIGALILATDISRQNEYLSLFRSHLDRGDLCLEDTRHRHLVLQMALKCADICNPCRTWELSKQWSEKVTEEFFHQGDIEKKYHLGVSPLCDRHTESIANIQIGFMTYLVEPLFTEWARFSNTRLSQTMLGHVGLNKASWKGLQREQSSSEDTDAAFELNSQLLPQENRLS
T2 sequence (Q08499 388-715): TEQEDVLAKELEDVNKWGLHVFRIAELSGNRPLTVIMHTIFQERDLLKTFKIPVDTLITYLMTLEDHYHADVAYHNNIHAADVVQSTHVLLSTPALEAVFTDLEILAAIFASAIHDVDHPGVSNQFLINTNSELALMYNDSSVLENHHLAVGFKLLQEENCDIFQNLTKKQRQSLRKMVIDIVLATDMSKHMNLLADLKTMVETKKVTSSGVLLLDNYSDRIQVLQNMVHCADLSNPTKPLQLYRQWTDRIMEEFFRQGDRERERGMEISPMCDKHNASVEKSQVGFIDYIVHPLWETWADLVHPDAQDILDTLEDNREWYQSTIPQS
PDE4B, sequence (Q07343 whole entry, species assumed): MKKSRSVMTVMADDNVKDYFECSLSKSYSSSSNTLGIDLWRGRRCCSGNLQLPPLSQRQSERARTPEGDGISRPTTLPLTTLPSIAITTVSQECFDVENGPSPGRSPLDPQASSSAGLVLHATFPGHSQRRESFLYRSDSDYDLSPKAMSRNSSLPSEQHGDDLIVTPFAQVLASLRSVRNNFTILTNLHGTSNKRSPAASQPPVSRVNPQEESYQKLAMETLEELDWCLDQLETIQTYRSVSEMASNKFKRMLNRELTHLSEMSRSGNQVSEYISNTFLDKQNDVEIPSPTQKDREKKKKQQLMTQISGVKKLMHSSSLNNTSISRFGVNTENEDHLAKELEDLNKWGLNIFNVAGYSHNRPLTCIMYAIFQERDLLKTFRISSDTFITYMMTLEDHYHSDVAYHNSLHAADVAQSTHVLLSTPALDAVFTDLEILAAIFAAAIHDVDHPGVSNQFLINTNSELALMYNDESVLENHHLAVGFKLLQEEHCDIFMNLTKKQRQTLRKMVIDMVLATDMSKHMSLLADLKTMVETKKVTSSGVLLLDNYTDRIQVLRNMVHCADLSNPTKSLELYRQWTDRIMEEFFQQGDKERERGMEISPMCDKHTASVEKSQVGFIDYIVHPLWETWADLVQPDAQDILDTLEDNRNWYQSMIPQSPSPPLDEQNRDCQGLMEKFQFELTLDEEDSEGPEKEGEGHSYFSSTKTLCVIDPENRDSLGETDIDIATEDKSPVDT
PDE4A, sequence (P27815 whole entry, species assumed): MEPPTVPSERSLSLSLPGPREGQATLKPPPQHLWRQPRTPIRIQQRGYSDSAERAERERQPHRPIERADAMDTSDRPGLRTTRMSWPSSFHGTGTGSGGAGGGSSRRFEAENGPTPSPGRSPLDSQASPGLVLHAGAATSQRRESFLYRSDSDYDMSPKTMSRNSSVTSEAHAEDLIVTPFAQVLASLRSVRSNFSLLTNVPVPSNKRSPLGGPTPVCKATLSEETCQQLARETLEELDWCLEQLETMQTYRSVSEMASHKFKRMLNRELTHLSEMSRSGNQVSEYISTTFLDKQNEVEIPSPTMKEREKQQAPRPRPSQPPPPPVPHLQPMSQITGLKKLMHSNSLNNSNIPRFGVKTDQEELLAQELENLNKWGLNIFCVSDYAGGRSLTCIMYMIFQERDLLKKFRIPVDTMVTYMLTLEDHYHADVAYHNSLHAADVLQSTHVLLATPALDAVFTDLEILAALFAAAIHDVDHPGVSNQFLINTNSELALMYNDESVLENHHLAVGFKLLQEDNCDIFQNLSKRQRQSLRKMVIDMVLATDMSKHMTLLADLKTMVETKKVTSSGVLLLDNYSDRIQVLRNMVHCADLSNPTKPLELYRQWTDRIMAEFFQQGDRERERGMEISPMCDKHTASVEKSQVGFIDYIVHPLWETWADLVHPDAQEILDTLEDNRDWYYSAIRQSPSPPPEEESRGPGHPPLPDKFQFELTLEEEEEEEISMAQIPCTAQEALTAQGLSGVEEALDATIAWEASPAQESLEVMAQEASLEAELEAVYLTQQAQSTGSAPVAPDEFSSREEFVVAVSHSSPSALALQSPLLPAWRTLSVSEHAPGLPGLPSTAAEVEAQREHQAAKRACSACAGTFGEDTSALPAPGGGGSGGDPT

cAMP Response (% rolipram), 4A1 [1]: 96.00 % rolipram
Compound: Cc1cc(C)nc(SCCS(=O)(=O)c2ccc(C(C)(C)C)cc2)n1 [Compound 26]

remaining activity at 2 µM [2]: 84%
Composite Z score, PDE4A1 [3]: 32.338
remaining activity at 2 µM [4]: 60%
remaining activity at 2 µM [5]: 39%
remaining activity at 2 µM [6]: 70%
Compound: Cc1c(C(=O)Nc2ccc3c(c2)OCCO3)sc2ncnc(N3CCc4ccccc4C3)c12 [Compound 58-10]

PDE4D catalytic domain, 2 uM cpm ([7]; 2 uM compound): 2583 cpm
In vitro activation of PDE4D catalytic domain, % activity ([7]; 2 micromolar compound, DMSO = 100): 139%
Compound: N#Cc1sc2sc(C#N)c(-c3ccco3)c2c1N [BC30]

Compound: COc1c2ccoc2cc2oc(C)cc(=O)c12 [visnagin]
hit in high throughput screens (promotes 5FOA^R growth), in words [8]: identified

remaining activity at 2 µM [2]: 20%
Composite Z score, PDE4A1 [3]: 27.41
remaining activity at 2 µM [4]: 14%
remaining activity at 2 µM [5]: 15%
remaining activity at 2 µM [6]: 30%
Compound: COc1cc(NC(=O)c2sc3ncnc(N4CCCCC4C)c3c2C)cc(OC)c1OC (stereo not drawn) [Compound 58-3]

Compound: Cc1cc2cc3c(C)cc(=O)oc3c(C)c2o1 [trioxsalen]
hit in high throughput screens (promotes 5FOA^R growth), in words [8]: identified

Compound: COc1ccc2c(c1)C1(C)CCC(=O)CC1CC2 (single isomer, unassigned) [Compound 39]
PDE inhibitor profile (Table 18) [9]: 39 (1)

inhibition of PDE8A in yeast, in words [10]: not able to be inhibited
Compound: OCCN(CCO)c1nc(N2CCCCC2)c2nc(N(CCO)CCO)nc(N3CCCCC3)c2n1 [dipyridamole, Dipyridamole]

Compound: COc1c2occc2c(OC)c2c(=O)cc(C)oc12 [khellin]
hit in high throughput screens (promotes 5FOA^R growth), in words [8]: identified
